In patent US20140073589A1, “Amphetamine Prodrugs” (Shire AG, priority 2012, published 2014):
“Also recorded” adds a separate entry of the source.

What was measured:
dog faecal homogenates = experiment: In vitro conversion of amphetamine prodrugs to amphetamine in dog faecal homogenates; type: in vitro ADME; settings: dog faecal homogenate, prodrug 10 μM, anaerobic, 37° C.; for Amphetamine C0: time 0; for Amphetamine C6: 6 hours; for Amphetamine C24: 24 hours
Experimental: (§1) Frozen samples were stored at −70° C. prior to analysis for the parent drug and pro-drug using a qualified LC-MS-MS assay.

human faecal homogenates = experiment: In vitro conversion of amphetamine prodrugs to amphetamine in human faecal homogenates; type: in vitro ADME; settings: for Amphetamine C0 / Amphetamine C6 / Amphetamine C24: human faecal homogenate, prodrug 10 μM, anaerobic, 37° C.; for Amphetamine C0: time 0; for conversion to the active by the microflora: summary of Table 4 incubations (dog, monkey, human faecal homogenates, rat caecal contents); for conversion to the active, human compared to dog faecal homogenates: human vs dog faecal homogenates; for Amphetamine C6: 6 hours; for Amphetamine C24: 24 hours
Experimental: as §1

[1] = Pharmacokinetics of amphetamine after oral dosing of d-amphetamine or Compound 1, or intranasal dosing of Compound 1, to male dogs (Example 23)
[2] = Pharmacokinetics of prodrug and amphetamine after oral dosing to male cynomolgus monkeys (Example 21); settings: cynomolgus monkey
[3] = Pharmacokinetics of prodrug and amphetamine after intravenous dosing to male cynomolgus monkeys (Example 22)
[4] = system: monkey faecal homogenates; experiment: In vitro conversion of amphetamine prodrugs to amphetamine in monkey faecal homogenates; type: in vitro ADME; settings: monkey faecal homogenate, prodrug 10 μM, anaerobic, 37° C., time 0
Experimental: as §1

[5] = Pharmacokinetics of prodrug and amphetamine after oral dosing to male dogs (Example 20); settings: for AUC / Tmax: male, dog, in vivo, po, 0.5 mg; for absorption of prodrug in the upper gastrointestinal tract: male dogs, oral gavage of prodrug
[6] = system: faecal homogenates prepared from three subjects; experiment: Interindividual variability in amphetamine generation in human fecal homogenates (Example 25); settings: 100 μM, anaerobic, 37° C., up to 6 hours

## C[C@@H](Cc1ccccc1)NC(=O)[C@@H](C)O[C@H]1[C@H](O)[C@@H](CO)OC(O)[C@@H]1N (mixture of isomers) [Compound 4, (2R)-2-(((3R,4R,5S,6R)-3-amino-2,5-dihydroxy-6-(hydroxymethyl)tetrahydro-2H-pyran-4-yl)oxy)-N-((S)-1-phenylpropan-2-yl)propanamide]
Dog faecal homogenates
  Amphetamine C0: BLQ
Human faecal homogenates
  Amphetamine C0: BLQ

## CC(=O)N[C@H]1C(O)O[C@H](CO)[C@H](O)C1O[C@H](C)C(=O)N[C@@H](C)Cc1ccccc1 (stereo partly drawn) [Compound 1, (2R)-2-(((3R,4R,5R,6R)-3-acetamido-2,5-dihydroxy-6-(hydroxymethyl)tetrahydro-2H-pyran-4-yl)oxy)-N-((S)-1-phenylpropan-2-yl)propanamide]
[1]; 4 mg intranasal vs 4 mg po
  exposure to amphetamine, intranasal compared with oral administration of the prodrug: less than that observed following oral administration of the prodrug
[1]; intranasal
  onset of amphetamine appearance in the systemic circulation: did not enhance the onset
[2]; in vivo, 0.5 mg
  AUC: 187 ng·h/mL
  Tmax: 1.1 h
[3]
  conversion to the active amphetamine following systemic exposure: no significant quantities
[3]; 0.2 mg d-amphetamine free base equivalents/kg
  amphetamine levels where detected (one time point between 4 and 8 hours): near the limit of quantification
[4]
  Amphetamine C0: BLQ
[5]
  AUC: 354 ng·h/mL
  Tmax: 1 h
[6]
  variability of amphetamine generation between subjects: relatively modest variability
Human faecal homogenates
  conversion to the active by the microflora: efficient conversion

## C[C@@H](Cc1ccccc1)NC(=O)[C@H](O)[C@@H](O)[C@H](O[C@@H]1O[C@H](CO)[C@H](O)[C@H](O)[C@H]1O)[C@H](O)CO [Compound 5, (2R,3R,4R,5R)-2,3,5,6-tetrahydroxy-N-((S)-1-phenylpropan-2-yl)-4-(((2S,3R,4S,5R,6R)-3,4,5-trihydroxy-6-(hydroxymethyl)tetrahydro-2H-pyran-2-yl)oxy)hexanamide]
Human faecal homogenates
  conversion to the active, human compared to dog faecal homogenates: greater activity in human in vitro studies; also recorded: higher in human compared to dog faecal homogenates
  conversion to the active by the microflora: efficient conversion

## C[C@@H](Cc1ccccc1)NC(=O)[C@H](O)[C@@H](O)[C@H](O)[C@H](O)CO [Compound 6, (2R,3S,4R,5R)-2,3,4,5,6-pentahydroxy-N-((S)-1-phenylpropan-2-yl)hexanamide]
Dog faecal homogenates
  Amphetamine C0: BLQ
[5]
  absorption of prodrug in the upper gastrointestinal tract: high absorption
Human faecal homogenates
  Amphetamine C0: BLQ

## C[C@@H](Cc1ccccc1)NC(=O)[C@@H](C)OC(=O)N[C@H]1C(O)O[C@H](CO)[C@@H](O)[C@@H]1O (stereo partly drawn) [Compound 8, (1R)-1-{[(2S)-1-Phenylpropan-2-yl]carbamoyl}ethyl N-[(3R,4R,5S,6R)-2,4,5-trihydroxy-6-(hydroxymethyl)oxan-3-yl]carbamate]
Dog faecal homogenates
  Amphetamine C6: BLQ
  Amphetamine C24: BLQ
  Amphetamine C0: BLQ
Human faecal homogenates
  Amphetamine C6: BLQ
  Amphetamine C24: BLQ
  Amphetamine C0: BLQ

## CCO[C@H]1O[C@H](CO)[C@@H](O)[C@H](O)[C@H]1NNC(C)Cc1ccccc1 (stereo partly drawn) [Compound 9, (2R,3S,4R,5R,6S)-6-Ethoxy-2-(hydroxymethyl)-5-[2-(1-phenylpropan-2-yl)hydrazin-1-yl]oxane-3,4-diol]
[5]
  absorption of prodrug in the upper gastrointestinal tract: high absorption

## CO[C@H]1O[C@H](CO)[C@@H](O)[C@H](O)[C@H]1NNC(C)Cc1ccccc1 (stereo partly drawn) [Compound 10, (2R,3S,4R,5R,6S)-6-Methoxy-2-(hydroxymethyl)-5-[2-(1-phenylpropan-2-yl)hydrazin-1-yl]oxane-3,4-diol]
[5]
  absorption of prodrug in the upper gastrointestinal tract: high absorption

## CC(=O)N[C@@H]1CO[C@H](CO)[C@@H](O)[C@@H]1O[C@H](C)C(=O)N[C@@H](C)Cc1ccccc1 [Compound 11, (R)-2-(((2R,3S,4R,5R)-5-Acetamido-3-hydroxy-2-(hydroxymethyl)tetrahydro-2H-pyran-4-yl)oxy)-N-((S)-1-phenylpropan-2-yl)propanamide]
Dog faecal homogenates
  Amphetamine C6: BLQ
  Amphetamine C24: BLQ
  Amphetamine C0: BLQ
Human faecal homogenates
  Amphetamine C6: BLQ
  Amphetamine C24: BLQ
  Amphetamine C0: BLQ

## C[C@@H](Cc1ccccc1)NC(=O)[C@@H](C)O[C@H]1[C@H](O)[C@@H](CO)OC[C@H]1N [Compound 12, (R)-2-(((2R,3S,4R,5R)-5-Amino-3-hydroxy-2-(hydroxymethyl)tetrahydro-2H-pyran-4-yl)oxy)-N-((S)-1-phenylpropan-2-yl)propanamide]
Dog faecal homogenates
  Amphetamine C6: BLQ
  Amphetamine C24: BLQ
  Amphetamine C0: BLQ
Human faecal homogenates
  Amphetamine C6: BLQ
  Amphetamine C24: BLQ
  Amphetamine C0: BLQ

## CC(=O)N[C@@H](C=O)[C@@H](O[C@H](C)C(=O)N[C@H](C)Cc1ccccc1)[C@H](O)[C@H](O)CO [Compound 13, (2R)-2-{[(2R,3R,4R,5R)-2-Acetamido-4,5,6-trihydroxy-1-oxohexan-3-yl]oxy}-N-[(2R)-1-phenylpropan-2-yl]propanamide]
[5]
  AUC: 564 ng·h/mL
  Tmax: 0.75 h
Human faecal homogenates
  Amphetamine C0: BLQ
  conversion to the active by the microflora: efficient conversion

## CC(=O)N[C@H]1C(O)O[C@H](CO)[C@@H](O)[C@@H]1O[C@@H](C)C(=O)N[C@@H](C)Cc1ccccc1 (stereo partly drawn) [Compound 14, (2S)-2-(((3R,4R,5S,6R)-3-Acetamido-2,5-dihydroxy-6-(hydroxymethyl)tetrahydro-2H-pyran-4-yl)oxy)-N-((S)-1-phenylpropan-2-yl)propanamide]
Dog faecal homogenates
  Amphetamine C0: BLQ
Human faecal homogenates
  Amphetamine C6: BLQ
  Amphetamine C24: BLQ
  Amphetamine C0: BLQ

## CC(=O)N[C@H]1C(O)O[C@H](CO)[C@@H](O)[C@@H]1OCC(=O)N[C@@H](C)Cc1ccccc1 (stereo partly drawn) [Compound 15, 2-(((3R,4R,5S,6R)-3-acetamido-2,5-dihydroxy-6-(hydroxymethyl)tetrahydro-2H-pyran-4-yl)oxy)-N-((S)-1-phenylpropan-2-yl)acetamide]
Dog faecal homogenates
  Amphetamine C0: BLQ
Human faecal homogenates
  Amphetamine C0: BLQ

## CCC(=O)N[C@H]1C(O)O[C@H](CO)[C@@H](O)[C@@H]1O[C@H](C)C(=O)N[C@@H](C)Cc1ccccc1 (stereo partly drawn) [Compound 16, (2R)-2-[(3R,4R,5S)-2,5-dihydroxy-6-(hydroxymethyl)-3-(propanoylamino)tetrahydropyran-4-yl]oxy-N-[(1S)-1-methyl-2-phenyl-ethyl]propanamide]
Dog faecal homogenates
  Amphetamine C0: BLQ
[5]
  AUC: 273 ng·h/mL
  Tmax: 0.5 h
Human faecal homogenates
  Amphetamine C0: BLQ
  conversion to the active by the microflora: efficient conversion

## CC(=O)N[C@H]1[C@@H]2OC[C@@H](O2)[C@@H](O)[C@@H]1O[C@H](C)C(=O)N[C@H](C)Cc1ccccc1 [Compound 17, (2R)-2-[[(2S,3R,4R)-4-acetamido-2-hydroxy-6,8-dioxabicyclo[3.2.1]octan-3-yl]oxy]-N-[(1R)-1-methyl-2-phenyl-ethyl]propanamide]
Dog faecal homogenates
  Amphetamine C0: BLQ
[5]
  AUC: 213 ng·h/mL
  Tmax: 0.5 h
Human faecal homogenates
  Amphetamine C0: BLQ
  conversion to the active, human compared to dog faecal homogenates: greater activity in human in vitro studies; also recorded: higher in human compared to dog faecal homogenates
  conversion to the active by the microflora: efficient conversion

## CC(C)C(=O)N[C@@H](C=O)[C@@H](O[C@H](C)C(=O)N[C@@H](C)Cc1ccccc1)[C@H](O)[C@H](O)CO [Compound 18, N-((2R,3R,4R,5R)-4,5,6-trihydroxy-1-oxo-3-(((R)-1-oxo-1-(((S)-1-phenylpropan-2-yl)amino)propan-2-yl)oxy)hexan-2-yl)isobutyramide]
Dog faecal homogenates
  Amphetamine C0: BLQ
Human faecal homogenates
  Amphetamine C0: BLQ

## CCCCCCCC(=O)N[C@@H](C=O)[C@@H](O[C@H](C)C(=O)N[C@@H](C)Cc1ccccc1)[C@H](O)[C@H](O)CO [Compound 19, N-((2R,3R,4R,5R)-4,5,6-trihydroxy-1-oxo-3-(((R)-1-oxo-1-(((S)-1-phenylpropan-2-yl)amino)propan-2-yl)oxy)hexan-2-yl)octanamide]
Dog faecal homogenates
  Amphetamine C0: BLQ
Human faecal homogenates
  Amphetamine C6: BLQ
  Amphetamine C0: BLQ

## C[C@H](N)Cc1ccccc1 [d-Amphetamine, d-amphetamine]
[2]; in vivo, 1 mg/kg
  Tmax: ≤ 1 h
[2]; plasma, 1 mg/kg
  AUC: 4440 ng·h/mL
  Tmax: 2.4 h
